Test results from ChEMBL document CHEMBL3137667, “[Drug-induced liver injury; fourteenth updated edition of the bibliographic database of liver injuries and related drugs]” (Gastroenterol Clin Biol, 2004).

Columns and labels:
[1] = Highest frequency of moderate liver toxicity observed during clinical trials, expressed as a percentage. [column '% BIOL' in source]; conditions: human
[2] = human
[3] = Comments (NB not yet translated). [column 'COMMENTAIRES' in source]; conditions: human
[4] = human, serum, 4383 h
[5] = Presence of at least one case with successful reintroduction. [column 'REINT' in source]; conditions: human
[6] = human; remark: listed apart in the source
[7] = Proposed mechanism(s) of liver damage. [column 'MEC' in source]; conditions: human
[8] = human, serum
[9] = Times to onset, minimal and maximal, observed in the indexed observations. [column 'DELAI' in source]; conditions: human
[10] = human; remark: listed apart in the source
[11] = human; remark: listed apart in the source
[12] = human; remark: listed apart in the source
[13] = human; remark: listed apart in the source
[14] = human; remark: listed apart in the source
[15] = human; remark: listed apart in the source
[16] = human; remark: listed apart in the source
[17] = Highest frequency of acute liver toxicity observed during clinical trials, expressed as a percentage. [column '% AIGUE' in source]; conditions: human
[18] = human, serum; remark: listed apart in the source
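Throughout, for Hepatotoxicity (association with vascular disease): count of indexed literature references reporting vascular liver injury in humans, e.g. peliosis hepatitis, hepatic veno-occlusive disease or Budd-Chiari syndrome.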
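Throughout, for Hepatotoxicity (benign tumour): value is a count of indexed literature references citing a benign tumour confirmed by histopathology.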
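Throughout, for Hepatotoxicity (choleostasis): human cholestatic liver injury, shown by histopathology or by peak ALT or AST elevation over alkaline phosphatase ratio below 2, value counts indexed literature reports.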
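Throughout, for Hepatotoxicity (chronic liver disease): chronic liver injury confirmed by histopathology or persistently raised serum aminotransferase activity beyond 6 months, value given as the count of indexed literature references.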
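Throughout, for Hepatotoxicity (cirrhosis): value is a count of indexed literature references reporting cirrhosis confirmed by histopathology.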
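Throughout, for Hepatotoxicity (cytolytic): human cytolytic liver injury, shown by histopathology or by a ratio above 5 of peak ALT or AST elevation to alkaline phosphatase elevation, value counts indexed references.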
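Throughout, for Hepatotoxicity (granulomatous hepatitis): value is a count of indexed literature references reporting granulomatous liver disease confirmed by histopathology.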
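Throughout, for Hepatotoxicity (malignant tumour): malignant tumour confirmed by histopathology, value gives the count of indexed literature references reporting it.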
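Throughout, for Hepatotoxicity (severe hepatitis): human clinical data: severe hepatitis, meaning potentially life-threatening liver failure or clinically observed cases, the value counts how many indexed literature references report it.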
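Throughout, for Hepatotoxicity (steatosis): steatosis confirmed by histopathology, value is the count of indexed references.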

Compound	Hepatotoxicity (steatosis) [2]	Hepatotoxicity (comment) [3]	Hepatotoxicity (chronic liver disease) [4]	Hepatotoxicity (successful reintroduction) [5]	Hepatotoxicity (moderate) [8]	Hepatotoxicity (time to onset) [9]	Hepatotoxicity (cirrhosis) [11]	Hepatotoxicity (malignant tumour) [12]	Hepatotoxicity (benign tumour) [14]	Hepatotoxicity (association with vascular disease) [16]	Hepatotoxicity (moderate) [1] [%]	Hepatotoxicity (acute) [17] [%]	Hepatotoxicity (acute) [18]	Hepatotoxicity (severe hepatitis) [6]	Hepatotoxicity (choleostasis) [10]	Hepatotoxicity (granulomatous hepatitis) [13]	Hepatotoxicity (cytolytic) [15]	further results
COc1cc(Cc2cnc(N)nc2N)cc(OC)c1OC.Cc1cc(NS(=O)(=O)c2ccc(N)cc2)no1 [CO-TRIMOXAZOLE]	1	RC/CEFADROXIL/SULFASALAZINE #CBP AC_ANTI-ML	3	yes	46	2 hours - 2 months	0	0	0	0	–	–	–	–	–	–	–	Hepatotoxicity (moderate) ([1]; Liver): 53.8%; Hepatotoxicity (severe hepatitis) ([6]; Liver): 11; Hepatotoxicity (mechanism) ([7]; Liver): Allergic, Dose-dependant, Toxic Metabolite; Hepatotoxicity (choleostasis) ([10]; Liver): 35; Hepatotoxicity (granulomatous hepatitis) ([13]; Liver): 1; Hepatotoxicity (cytolytic) ([15]; Liver): 17
O=C1OCCN1/N=C/c1ccc([N+](=O)[O-])o1 [FURAZOLIDONE]	0	RC/NITROFURANTOINE	0	yes	1	–	0	0	0	–	0	0	3	0	3	0	1	Hepatotoxicity (mechanism) [7]: Allergic
Clc1ccc(C(c2ccccc2Cl)C(Cl)Cl)cc1 (configuration not stated) [MITOTANE]	0	INDUCTION_ENZYMATIQUE	0	yes	5	–	0	0	0	0	0	0	0	0	0	0	0	Hepatotoxicity (mechanism) [7]: Dose-dependant
CCCc1cc(=O)[nH]c(=S)[nH]1 [PROPYLTHIOURACIL]	0	AC_ANTI-N/-M CHOLESTASE_PROLONGEE	4	yes	5	1 day - 1.3 years	1	0	0	0	–	–	–	–	–	–	–	Hepatotoxicity (moderate) ([1]; Liver): 27.8%; Hepatotoxicity (severe hepatitis) ([6]; Liver): 19; Hepatotoxicity (mechanism) ([7]; Liver): Allergic, Reactive metabolite; Hepatotoxicity (choleostasis) ([10]; Liver): 15; Hepatotoxicity (granulomatous hepatitis) ([13]; Liver): 0; Hepatotoxicity (cytolytic) ([15]; Liver): 31
CC1(C)S[C@@H]2[C@H](NC(=O)[C@H](C(=O)O)c3ccsc3)C(=O)N2[C@H]1C(=O)O [TICARCILLIN]	0	RC/CARBENICILLINE	0	yes	7	2 days - 1 week	0	0	0	0	5	0	0	0	0	0	0	–
Cc1ccc(S(=O)(=O)NC(=O)NN2CCCCCC2)cc1 [TOLAZAMIDE]	0	CHOLESTASE_PROLONGEE RC/CHLORPROPAMIDE	0	yes	0	3 weeks - 18 months	0	0	0	0	0	0	5	1	4	0	5	–
CC(=O)CC(c1ccccc1)c1c(O)c2ccccc2oc1=O (configuration not stated) [WARFARIN]	0	RC/PHENPROCOUMON RUPTURE_HEPATIQUE #S.REYE	0	yes	2	1 week - 2.5 years	0	0	0	0	0	0	6	0	5	0	0	–
Cc1cn([C@H]2C[C@H](N=[N+]=[N-])[C@@H](CO)O2)c(=O)[nH]c1=O [ZIDOVUDINE]	17	I/INTERFERON/PARACETAMOL REACTIVATION_HVB	0	yes	26	1 week - 8 years	0	0	0	0	44	12.5	25	13	3	0	22	–
ALTEPLASE	0	AGGRAVATION_MVO	0	yes	4	3 days - 4 days	0	0	0	0	21.2	0	1	0	0	0	1	–
STREPTOKINASE	0	RUPTURE_HEPATIQUE	0	yes	12	1 day - 1 week	0	0	0	0	75	0	9	0	3	0	5	–
